*1 amine or outer side, *2 acyl side, *3 side chain or, on linkers, in order; H or OH if unused. Where a SMILES comes first, the peptide text is derived from it. Bridges are numbered along the chain shown (N, C = ends). [ ]: non-standard residue; d: D form. Abu(4-yl) = O=C([C@H](CC[*:3])N[*:1])[*:2]; 2Nal = N[C@@H](Cc1ccc2ccccc2c1)C(=O)O; AEF = NCCOc1ccc(C[C@H](N)C(=O)O)cc1; αMeK = C[C@](N)(CCCCN)C(=O)O
Experiments:
[1] = target: T1, Interleukin-23 receptor (Homo sapiens, UniProt Q5VWK5); test: Inhibition of interleukin-23 binding to human interleukin-23 receptor incubated for 2 hrs by competitive binding ELISA
T1 sequence (Q5VWK5 whole entry): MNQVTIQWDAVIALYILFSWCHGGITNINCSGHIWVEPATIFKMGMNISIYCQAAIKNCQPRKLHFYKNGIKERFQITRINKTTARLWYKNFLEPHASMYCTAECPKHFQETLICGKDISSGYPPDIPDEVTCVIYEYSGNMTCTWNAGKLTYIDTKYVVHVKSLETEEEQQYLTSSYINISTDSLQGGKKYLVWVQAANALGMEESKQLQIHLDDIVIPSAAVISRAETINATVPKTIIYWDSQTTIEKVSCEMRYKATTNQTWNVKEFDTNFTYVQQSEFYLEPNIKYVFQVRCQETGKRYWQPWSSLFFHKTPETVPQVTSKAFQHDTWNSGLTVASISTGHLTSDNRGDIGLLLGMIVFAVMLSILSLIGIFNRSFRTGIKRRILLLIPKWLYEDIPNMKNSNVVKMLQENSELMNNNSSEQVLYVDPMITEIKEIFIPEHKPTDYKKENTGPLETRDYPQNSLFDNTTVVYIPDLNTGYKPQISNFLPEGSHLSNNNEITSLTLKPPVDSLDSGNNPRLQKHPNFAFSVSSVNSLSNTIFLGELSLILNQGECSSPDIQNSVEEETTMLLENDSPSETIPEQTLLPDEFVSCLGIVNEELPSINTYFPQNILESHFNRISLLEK

[2] = target: T1, Interleukin-23 receptor; test: Inhibition of interleukin-23 receptor in human DB cells assessed as reduction in IL-23-stimulated STAT3 phosphorylation incubated for 30 mins by HTRF assay; type: cell-based
[3] = Inhibition of interleukin-23 binding to rat interleukin-23 receptor incubated for 2 hrs by competitive binding ELISA
[4] = Half life in simulated intestinal fluid at 20 uM by LC-MS/MS analysis; type: ADME

| Compound | IC50 [1] | IC50 [2] | IC50 [3] | half-life at 20 µM [4] |
| --- | --- | --- | --- | --- |
| CC(=O)N[C@H](C(=O)N[C@@H](CCCNC(=N)N)C(=O)N[C@H](C(=O)N[C@@H](Cc1c[nH]c2ccccc12)C(=O)N[C@@H](CCC(N)=O)C(=O)N[C@@H](CS)C(=O)N[C@@H](Cc1ccc(O)cc1)C(=O)N[C@@H](Cc1c[nH]c2ccccc12)C(=O)N[C@@H](CCCNC(=N)N)C(=O)N[C@@H](CCCCN)C(=O)N[C@@H](Cc1ccccc1)C(=O)NCC(=O)NCCOCC(=O)N[C@H](CCCCN)C(N)=O)[C@@H](C)O)C(C)(C)S | 100 to 1000 nM | 100 to 1000 nM | 100 to 1000 nM | – |
| CC(=O)N[C@@H](CS)C(=O)N[C@@H](CCC(N)=O)C(=O)N[C@H](C(=O)N[C@@H](Cc1c[nH]c2ccccc12)C(=O)N[C@@H](CCC(N)=O)C(=O)N[C@H](C(=O)N[C@@H](Cc1ccc(O)cc1)C(=O)N[C@@H](Cc1c[nH]c2ccccc12)C(=O)N[C@@](C)(CC(C)C)C(=O)N[C@@H](CCC(=O)O)C(=O)N[C@@H](CC(N)=O)C(=O)NCC(N)=O)C(C)(C)S)[C@@H](C)O | 100 to 1000 nM | – | 100 to 1000 nM | < 60 min |
| COc1ccc(C[C@H](NC(=O)[C@@H](NC(=O)[C@H](CCC(N)=O)NC(=O)[C@H](Cc2c[nH]c3ccccc23)NC(=O)[C@@H](NC(=O)[C@H](CCC(N)=O)NC(=O)[C@@H](NC(=O)Cc2ccc(F)cc2)C(C)(C)S)[C@@H](C)O)C(C)(C)S)C(=O)N[C@@H](Cc2ccc3ccccc3c2)C(=O)N[C@@](C)(CCCCN)C(=O)N[C@@H](CCCCNC(C)=O)C(=O)N[C@@H](CC(N)=O)C(=O)NCC(N)=O)cc1 | 25 to 100 nM | < 10 nM | 100 to 1000 nM | – |
| CC(=O)N[C@H](C(=O)N[C@@H](CCCNC(=N)N)C(=O)N[C@H](C(=O)N[C@@H](Cc1c[nH]c2ccccc12)C(=O)N[C@@H](CCC(N)=O)C(=O)N[C@H](C(=O)N[C@@H](Cc1ccc(O)cc1)C(=O)N[C@@H](Cc1c[nH]c2ccccc12)C(=O)N[C@@H](CCCNC(=N)N)C(=O)N[C@@H](CCCCN)C(=O)N[C@@H](Cc1ccccc1)C(=O)NCC(=O)NCCOCC(=O)N[C@H](CCCCN)C(N)=O)C(C)(C)S)[C@@H](C)O)C(C)(C)S | 100 to 1000 nM | 25 to 100 nM | 100 to 1000 nM | – |
| CC(=O)NCCCC[C@](C)(NC(=O)[C@H](Cc1ccc2ccccc2c1)NC(=O)[C@H](Cc1ccc(OCCNC(C)=O)cc1)NC(=O)[C@@H]1CSCC[C@H](NC(C)=O)C(=O)N[C@@H](CCC(N)=O)C(=O)N[C@@H]([C@@H](C)O)C(=O)N[C@@H](Cc2c[nH]c3ccccc23)C(=O)N[C@@H](CCC(N)=O)C(=O)N1)C(=O)N[C@@H](CCC(=O)O)C(=O)N[C@@H](CC(N)=O)C(=O)N[C@@H](CCC(N)=O)C(N)=O (Ac-[Abu(4-yl)]QTWQC[AEF](Ac)[2Nal][αMeK](Ac)ENQ-NH2; thioether 1-6) | < 10 nM | < 10 nM | < 10 nM | – |
| CC(=O)NCCCC[C@H](NC(=O)[C@H](CCC(C)C)NC(=O)[C@H](Cc1c[nH]c2ccccc12)NC(=O)[C@H](Cc1ccc(O)cc1)NC(=O)[C@H](CS)NC(=O)[C@H](CCC(N)=O)NC(=O)[C@H](Cc1c[nH]c2ccccc12)NC(=O)[C@@H](NC(=O)[C@H](CCC(N)=O)NC(=O)[C@H](CS)NC(C)=O)[C@@H](C)O)C(=O)N[C@@H](CC(N)=O)C(=O)NCC(N)=O | – | 3 nM | 32 nM | – |
| CC(=O)N[C@@H](CS)C(=O)N[C@@H](CCC(N)=O)C(=O)N[C@H](C(=O)N[C@@H](Cc1c[nH]c2ccccc12)C(=O)N[C@@H](CCC(N)=O)C(=O)N[C@@H](CS)C(=O)N[C@@H](Cc1ccc(O)cc1)C(=O)N[C@@H](Cc1c[nH]c2ccccc12)C(=O)N[C@@](C)(CC(C)C)C(=O)N[C@@H](CCC(=O)O)C(=O)N[C@@H](CC(N)=O)C(=O)NCC(N)=O)[C@@H](C)O | – | 5 nM | 27 nM | – |
| CC(=O)N[C@@H](CS)C(=O)N[C@@H](CO)C(=O)N[C@H](C(=O)N[C@@H](Cc1c[nH]c2ccccc12)C(=O)N[C@@H](CCC(N)=O)C(=O)N[C@@H](CS)C(=O)N[C@@H](Cc1ccc(O)cc1)C(=O)N[C@@H](Cc1c[nH]c2ccccc12)C(=O)N[C@@H](CC(C)C)C(=O)N[C@@H](CCCCN)C(=O)N[C@@H](Cc1cnc[nH]1)C(=O)NCC(=O)NCC(=O)N[C@@H](CCC(=O)O)C(N)=O)[C@@H](C)O (Ac-CSTWQCYWLKHGGE-NH2) | – | 2 nM | 24 nM | – |
| COc1ccc(C[C@H](NC(=O)[C@@H](NC(=O)[C@H](CCC(N)=O)NC(=O)[C@H](Cc2c[nH]c3ccccc23)NC(=O)[C@@H](NC(=O)[C@H](CCC(N)=O)NC(=O)[C@@H](NCN2C(=O)COCC2=O)C(C)(C)S)[C@@H](C)O)C(C)(C)S)C(=O)N[C@@H](Cc2ccc3ccccc3c2)C(=O)N[C@@](C)(CCCCN)C(=O)N[C@@H](CCCCNC(C)=O)C(=O)N[C@@H](CC(N)=O)C(=O)NCC(N)=O)cc1 | 25 to 100 nM | 10 to 25 nM | 25 to 100 nM | – |
